Data: PubChem BioAssay (NCI)
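Exposure lasted 48 hours, with cells grown in 96-well plates and compounds tested at five concentrations. GI50 marks 50% less growth. TGI is the concentration that stops growth completely.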

Tests used:
Test in all cases: growth of human tumour cells (NCI), 48 h
MDA-MB-468 breast = test system: MDA-MB-468 breast
RXF 393 renal = test system: RXF 393 renal
SF-539 CNS = test system: SF-539 CNS
NCI-H23 lung = test system: NCI-H23 lung
HCC-2998 colon = test system: HCC-2998 colon
SN12C renal = test system: SN12C renal
SF-295 CNS = test system: SF-295 CNS
CCRF-CEM leukemia = test system: CCRF-CEM leukemia
HS 578T breast = test system: HS 578T breast
UACC-62 melanoma = test system: UACC-62 melanoma
OVCAR-5 ovarian = test system: OVCAR-5 ovarian

Row | SMILES | GI50 (MDA-MB-468 breast) | TGI (MDA-MB-468 breast) | further results
1 | N#CC(I)CS(=O)(=O)c1ccccc1 (stereo unspecified) | 3550 nM | 14100 nM | 
2 | COc1ccc(-c2cc(=O)oc3c4c(ccc23)OCN(Cc2ccc(F)cc2)C4)cc1 | 15700 nM | 36300 nM | 
3 | COc1ccc(CNc2c3ccccc3nc3ccccc23)cc1F | 1860 nM | 4810 nM | 
4 | CCCCCCn1c(-c2ccc(C(=O)O/N=C(\N)c3ccc4c(c3)OCO4)cc2)nc(-c2ccccc2)c1-c1ccccc1 | 2110 nM | 5620 nM | 
5 | CN(C)CCN1CCC(Cc2ccccc2)CC1 | > 80000 nM | > 80000 nM | 
6 | COc1nc(=O)n(C2C=CC(=O)O2)cc1F (stereo unspecified) | 1930 nM | 9100 nM | 
7 | OC(c1cc2cc(Cl)ccc2c2cc(C(F)(F)F)ccc12)C1CCCCN1 (stereo unspecified) | 1660 nM | 3200 nM | 
8 | CNCCCNc1ccnc2cc(Cl)ccc12 | 12700 nM | 33500 nM | 
9 | Nc1nc(Cl)nc2c1ncn2C1CC(O)C(CO)O1 (stereo unspecified) | 56600 nM | > 100000 nM | 
10 | O=C(Nc1ncc(Cc2cccc(C(F)(F)F)c2)s1)c1ccc2c(c1)OCCO2 | 251 nM |  | 
11 | COC(=O)/C=C/c1cc(OC(C)=O)c2c(c1)C(C(=O)OC)C(c1ccc(OC(C)=O)c(OC(C)=O)c1)O2 (stereo unspecified) | 1200 nM | 17800 nM | 
12 | CCOC(=O)c1c(C)c2c(n1Cc1ccccc1)CSCC2=O | 23300 nM | > 100000 nM | 
13 | CC[C@]1(O)C[C@H]2CN(CCc3c([nH]c4ccccc34)C(C(=O)OC)(c3cc4c(cc3OC)N(C)[C@H]3[C@@](O)(C(=O)OC)[C@H](OC(C)=O)[C@]5(CC)[C@@H]6C[C@@H]6CN6CC[C@]43[C@@H]65)C2)C1 (stereo partly specified) | 2.85 nM | 9.17 nM | 
14 | C=C(C)[C@@H]1CC[C@]2(CN)CC[C@]3(C)[C@H](CC[C@@H]4[C@@]5(C)CCCNC(C)(C)[C@@H]5CC[C@]43C)[C@@H]12 | 1750 nM | 3520 nM | 
15 | Brc1ccc(/C=C/c2n(Cc3ccc4ccccc4c3)c3ccccc3[n+]2Cc2ccc3ccccc3c2)cc1 | 1340 nM | 2730 nM | GI50 (RXF 393 renal): 1350 nM; TGI (RXF 393 renal): 2640 nM; GI50 (SF-539 CNS): 1670 nM; TGI (SF-539 CNS): 3040 nM; GI50 (NCI-H23 lung): 1330 nM; TGI (NCI-H23 lung): 2680 nM; GI50 (HCC-2998 colon): 1490 nM; TGI (HCC-2998 colon): 2830 nM; GI50 (SN12C renal): 1640 nM; TGI (SN12C renal): 3030 nM; GI50 (SF-295 CNS): 1400 nM; TGI (SF-295 CNS): 2730 nM; GI50 (CCRF-CEM leukemia): 519 nM; TGI (CCRF-CEM leukemia): > 100000 nM; GI50 (HS 578T breast): 1480 nM; TGI (HS 578T breast): 3870 nM; GI50 (UACC-62 melanoma): 1530 nM; TGI (UACC-62 melanoma): 2900 nM; GI50 (OVCAR-5 ovarian): 1350 nM; TGI (OVCAR-5 ovarian): 2660 nM
16 | Cc1cccc(NC2=C(Cl)C(=O)c3nc(C)ccc3C2=O)c1 | 1270 nM | 2890 nM | 
